In ChEMBL document CHEMBL1201862, “PubChem BioAssay data set” (2004):
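Grown in 96-well plates, cells were treated for 48 hours with each compound at five concentrations. Insufficient inhibition: endpoint recorded as highest concentration tested. Here, GI50 denotes the concentration required for 50% inhibition of growth.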 The source made the active and inactive calls. Cut-off read from the data, not from the text of the source: active = GI50 up to about 1.1 µM and inactive = higher.

Columns and labels:
Experiment in all cases: growth of human tumour cells (NCI), 48 h
[1] = system: U-251
[2] = system: OVCAR-8
[3] = system: IGROV-1
[4] = system: A498
[5] = system: SK-OV-3
[6] = system: M14
[7] = system: MOLT-4
[8] = system: A549
[9] = system: SF-295
[10] = system: ACHN
[11] = system: 786-0
[12] = system: HOP-92
[13] = system: COLO 205
[14] = system: SF-268
[15] = system: SK-MEL-2
[16] = system: KM12
[17] = system: OVCAR-3

Measured: GI50

Nc1nc2c3nc(Nc4ccccc4)sc3nc(=O)n2c2sc(Nc3ccccc3)nc12
inactive: [1] > 100 µM | [2] > 100 µM | [3] > 100 µM | [4] > 100 µM | [5] > 100 µM | [6] > 100 µM | [7] > 100 µM | [8] > 100 µM | [9] > 100 µM | [10] > 100 µM | [11] > 100 µM | [12] > 100 µM | [13] > 100 µM | [14] > 100 µM

O=c1c2ccccc2c(=O)n2n1CC=CC2
inactive: [1] > 100 µM | [2] > 100 µM | [15] > 100 µM | [3] > 100 µM | [4] > 100 µM | [5] > 100 µM | [6] > 100 µM | [7] > 100 µM | [8] > 100 µM | [16] > 100 µM | [17] > 100 µM | [9] > 100 µM | [10] > 100 µM | [11] > 100 µM | [12] > 100 µM | [13] > 100 µM | [14] > 100 µM

O=C1C=Cc2c(-c3ccccc3)oc3cccc1c23
inactive: [1] 8.91 µM | [2] 9.31 µM | [15] 67.1 µM | [3] 15.8 µM | [4] 15.4 µM | [5] 24.4 µM | [6] 30.5 µM | [7] 3.76 µM | [8] 6.98 µM | [16] 28.5 µM | [17] 20.9 µM | [9] 25.7 µM | [10] 13.2 µM | [11] 23.7 µM | [12] 13.4 µM | [13] 15.8 µM | [14] 21.1 µM

COc1c(-c2ccccc2)nc2ccc(Oc3ccccc3)nn12
inactive: [1] > 80.5 µM | [2] > 64 µM | [15] > 54 µM | [3] > 93.8 µM | [4] > 41.4 µM | [5] > 100 µM | [6] > 59.8 µM | [7] 14.1 µM | [8] > 57.5 µM | [16] > 54.2 µM | [17] > 77.6 µM | [9] > 62.8 µM | [10] > 58.7 µM | [11] > 61.5 µM | [12] > 100 µM | [13] > 44.7 µM | [14] > 56.4 µM

C1CCN(c2nc(=[N+]3CCCCC3)ss2)CC1
inactive: [1] 49.5 µM | [2] > 100 µM | [15] > 100 µM | [3] > 100 µM | [4] > 100 µM | [5] 71.9 µM | [6] > 100 µM | [7] > 100 µM | [8] 55.8 µM | [16] 9.18 µM | [9] > 100 µM | [10] > 100 µM | [11] > 100 µM | [12] > 100 µM | [14] 82 µM

COc1cc(/C=C/c2cccnc2)cc(OC)c1OC
inactive: [1] > 100 µM | [2] > 100 µM | [3] > 100 µM | [4] > 100 µM | [6] > 100 µM | [7] > 100 µM | [8] > 100 µM | [16] > 100 µM | [17] > 100 µM | [9] > 100 µM | [10] > 100 µM | [11] > 100 µM | [12] 31.8 µM | [13] > 100 µM | [14] > 100 µM

O=C(Cc1nc2ccccc2s1)C(=O)Nc1ccccc1C(F)(F)F
inactive: [1] > 100 µM | [2] > 100 µM | [15] > 100 µM | [3] > 100 µM | [4] > 100 µM | [5] > 100 µM | [6] > 100 µM | [7] > 100 µM | [8] > 100 µM | [16] > 100 µM | [17] > 100 µM | [9] > 100 µM | [10] > 100 µM | [11] > 100 µM | [12] 20.4 µM | [13] > 100 µM | [14] > 100 µM

CC(NC(=O)c1ccccc1)C(=O)N(Cc1ccccc1)Cc1ccccc1 (stereo not drawn)
inactive: [1] 29.8 µM | [15] 20.7 µM | [3] 34 µM | [4] 25.6 µM | [5] 33.7 µM | [6] 21 µM | [7] 14.1 µM | [8] 30.2 µM | [16] 26.6 µM | [9] 27.4 µM | [10] 31.7 µM | [11] 37.6 µM | [12] 23.6 µM | [13] 19.2 µM | [14] 35.4 µM

CCCCCCC(C)CCCCCCCCCCC(=O)O (stereo not drawn)
inactive: [1] > 100 µM | [2] > 100 µM | [15] > 100 µM | [3] > 100 µM | [4] > 100 µM | [5] > 100 µM | [6] > 100 µM | [7] > 100 µM | [8] > 100 µM | [16] 64.7 µM | [17] > 100 µM | [9] > 100 µM | [10] > 100 µM | [11] > 100 µM | [12] > 100 µM | [13] > 100 µM | [14] > 100 µM

Cc1ccccc1NC(=O)CC1C(=O)Nc2ccccc2[S+]1[O-] (stereo not drawn)
inactive: [1] 51.1 µM | [2] 47.9 µM | [15] > 100 µM | [3] 88.1 µM | [4] > 100 µM | [6] > 100 µM | [7] > 100 µM | [8] > 100 µM | [17] > 100 µM | [9] > 100 µM | [10] 95.3 µM | [11] 49.7 µM | [12] 52.7 µM | [14] > 100 µM

CCn1c2ccccc2c2ccc3c(c21)C(=O)c1ccccc1C3=O
inactive: [1] > 100 µM | [2] > 100 µM | [3] > 100 µM | [4] > 100 µM | [5] > 100 µM | [6] > 100 µM | [7] 61.5 µM | [8] > 100 µM | [9] 91.2 µM | [10] > 100 µM | [11] > 100 µM | [12] 82.2 µM | [13] 55.8 µM | [14] > 100 µM

Clc1ccc(C2N3CCCCC3[C@@H]3c4[nH]c5ccccc5c4CCN23)cc1 (stereo partly drawn)
inactive: [1] 57.9 µM | [2] > 100 µM | [15] 34 µM | [3] > 100 µM | [4] 94.4 µM | [5] > 100 µM | [6] 38.3 µM | [7] 64.7 µM | [8] 79.6 µM | [17] 50.5 µM | [9] 67.1 µM | [10] 39.2 µM | [11] > 100 µM | [12] > 100 µM | [14] 57.9 µM

Clc1cccc(C2SCc3nc4ccccc4n32)c1Cl (stereo not drawn)
inactive: [1] 17.5 µM | [2] 19 µM | [15] 16.7 µM | [3] 16.6 µM | [4] 15.2 µM | [5] 20.1 µM | [6] 16.6 µM | [7] 11.1 µM | [8] 17.9 µM | [17] 19 µM | [9] 16.5 µM | [10] 20.8 µM | [11] 17.7 µM | [12] 15.2 µM | [13] 19.8 µM | [14] 21 µM
